Results reported in patent publication US20230000811A1, “COMPOSITIONS FOR DISRUPTING BIOFILM FORMATION AND FOR TREATING BIOFILM-RELATED DISORDERS” (AHV International B.V., priority 2020, published 2023).

What was measured:
Type in all cases: cell-based
Streptococcus uberis [1] = assay: MBIC 90 (minimum biofilm inhibitory concentration); conditions: Str. uberis clinical isolate
Text: (§1) In this example the following bacterial strains were used: Staphyllococcus aureus ATCC 25923 obtained from the ATCC collection; Staphyllococcus aureus 074 was kindly provided by prof. Fink, Faculty of Veterinary Medicine, Utrecht University, the Netherlands, described as a clinical isolate from cows with mastitis. Information for the strain is further given in: Melchior, M. B., Fink-Gremmels, J., & Gaastra, W. (2006). Comparative Assessment of the Antimicrobial Susceptibility of Staphylococcus aureus Isolates from Bovine Mastitis in Biofilm Versus Planktonic Culture. Journal of Veterinary Medicine Series B, 53(7), 326-332; Staphyllococcus aureus ATCC 15564 obtained from the ATCC collection and Streptococcus uberis clinical isolate from a cow with mastitis, part from the collection of Department of Veterinary Microbiology, Infectious and Parasitic Diseases, Trakia University, Bulgary.
(§2) Minimum Biofilm Inhibitory Concentration (MBIC) and Microtiter Biofilm Eradication concentration (MBEC) are defined and measured as indicated in table 7.
(§3) Applying the methods as summarised in table 7, the above-mentioned bacteria were tested with PTSO/PTS enriched plant extract, pure PTSO, and pure PTS as described in example 1 and DPD as described in example 2.

[2] = system: Staphylococcus aureus strains; assay: MBIC 90 (minimum biofilm inhibitory concentration)
Text: as §1, §2, §3

[3] = system: heterotrophic microbial biofilm; assay: Biofilm eradication in PBR (photobioreactor), released CFU's
Protocol: In order to determine the anti-biofilm effect of PTSO, PTS and DPD (dipropyl disulfide), a biofilm was grown under controlled conditions in a glass tube reactor, the PBR. A photobioreactor was used as model system because biofilm formation was clearly visible in the glass tubes. After a mature biofilm was formed, increasing levels of pure PTSO, PTS or DPD were added and the biofilm was removed by titration of pure PTSO, PTS or DPD and the dosages were determined that the biofilm was eradicated. Hereafter, the microbial composition was determined of the biofilm by deep sequencing.
Heterotrophic microbial biofilm: a biofilm was cultivated in a 26.5-liter glass photobioreactor (PBR) with a tube length of 37-meter incl. bends (the GemTube RD-25 Glass of LGEM). The PBR was filled with 22 liters of not sterilized medium (fable 1).
The medium further contained 1 g/l glucose. Inoculation took place by the adding 500 ml ditch water from the Zuidpolder near Delfgauw. Air was pumped in with a rate of 1.0 liter/min: at this setting the medium circulation through the PBR in the medium was as low as possible but there was a stable hold-up to realize medium circulation in the PBR. The PBR was covered with a dark plastic screen to prevent exposure to the light. Incubation took place at 12-18° C. and pH was controlled 5 times per week to 5.2-5.7, once per 1.5 day. After a total dosage of 5 g/l glucose, (after 1 week) a slimy layer (biofilm) was formed that covers the whole inner surface of the glass tube. The medium was replaced by fresh medium without glucose when the biofilm was formed.
Pure PTSO and PTS were obtained as is indicated in example 1 and stable solutions were prepared in water by sonication of 1000× diluted mixtures. DPD (dipropyl disulfide >98% pure) was supplied by Sigma. After each addition step the biofilm culture was incubated for 24 hours to observe the stability of the biofilm.
The numbers of aerobic, anaerobic/micro-aerophilic and fungal CFU's in the biofilm and supernatant were determined according to standard operating procedures as follows: for aerobic colony forming units per ml (CFU/ml) see https://www.iso.org/standard/53728.html; for the determination of anaerobic CFU's/ml see https://www.thermofisher.com/order/catalog/product/AN0025A#HAN0025A (the plates are incubated in an oxygen-free container) and with respect to the numbers of colony forming unites for fungi see http://edgeanalytical.com/wp-content/uploads/Food_AOAC-997.02.pdf (see Table 2).
Another sample of the biofilm was drawn and a part was stored at minus 80 degrees as inoculum material for further studies. The other part of the biofilm was dissolved by gentle sonification and used to determine the aerobic, anaerobic and fungal numbers of colony forming units as described above. Hereafter it was calculated whether the numbers of colony forming microorganisms in the medium corresponded with the number of microorganisms in the biofilm prior to the treatment. In this way it was calculated whether the microorganisms were killed by the treatments, or that the bacteria remained alive and that only the biofilm was solubilized.
In order to investigate whether PTSO has a destabilizing effect of the biofilm or simply kills the microorganisms, samples were drawn from the biofilm before the treatments and samples of the liquid medium were drawn before and after treatment and were inoculated as described above to determine the number of colony forming units. Hereafter it was calculated whether the numbers of colony forming microorganisms in the medium corresponded with the number of microorganisms in the biofilm prior to the treatment. In this way it was calculated whether the microorganisms are killed by the treatments, or that the bacteria remained alive and that only the biofilm was solubilized (fable 6).

Streptococcus uberis [4] = assay: MBEC (biofilm eradication); conditions: Str. uberis clinical isolate
Text: as §1, §2, §3

[5] = system: Staphylococcus aureus strains; assay: MBEC (biofilm eradication)
Text: as §1, §2, §3

[6] = PTSO cumulative dosage 0.05 ul/l culture (dose 0.05), day 2
[7] = PTSO cumulative dosage 0.15 ul/l culture (dose 0.1), day 6
[8] = PTSO cumulative dosage 0.65 ul/l culture (dose 0.5), day 8
[9] = PTSO cumulative dosage 1.65 ul/l culture (dose 1.0), day 13
[10] = PTSO cumulative dosage 3.65 ul/l culture (dose 2.0), day 15
[11] = after 208 mg pure DPD/liter culture
[12] = total dose DPD (cumulative) 1 ul/l (dose 0.50)
[13] = total dose DPD (cumulative) 2 ul/l (dose 1.00)
[14] = total dose DPD (cumulative) 7 ul/l (dose 5.00)
[15] = total dose DPD (cumulative) 17 ul/l (dose 10.00)
[16] = total dose DPD (cumulative) 67 ul/l (dose 50.00)
[17] = total dose DPD (cumulative) 117 ul/l (dose 50.00)
[18] = total dose DPD (cumulative) 167 ul/l (dose 50.00)
[19] = total dose DPD (cumulative) 217 ul/l (dose 50.00)
[20] = total dose DPD (cumulative) 267 ul/l (dose 50.00)
[21] = total dose DPD (cumulative) 317 ul/l (dose 50.00)
[22] = total dose DPD (cumulative) 367 ul/l (dose 50.00)
[23] = total dose DPD (cumulative) 417 ul/l (dose 50.00)
[24] = total dose DPD (cumulative) 467 ul/l (dose 50.00)
[25] = total dose DPD (cumulative) 517 ul/l (dose 50.00)

In the case of `CCCSS(=O)(=O)CCC` (single isomer, unassigned) [PTSO, propyl-propane thiosulfonate], the “MBIC 90” value (Streptococcus uberis [1]) is reported as 128 µg/mL, the “MBIC 90” value ([2]; St. aureus 074) is reported as 128 µg/mL and the “MBIC 90” value ([2]; St. aureus ATCC 15564) is reported as 128 µg/mL. For the same molecule, the “MBIC 90” value ([2]; St. aureus ATCC 25923) was 128 µg/mL, the “Aerobic CFU's after 24 hours” value [3, 6] was 2,033 ×1000 and the “Anaerobic CFU's after 24 hour” value [3, 6] was 383 ×1000. For the same molecule, the “Fungal CFU's after 24 hours” value [3, 6] was 150 ×1000, the “Aerobic CFU's after 24 hours” value [3, 7] was 3,367 ×1000 and the “Anaerobic CFU's after 24 hour” value [3, 7] was 750 ×1000. For the same molecule, the “Fungal CFU's after 24 hours” value [3, 7] was 150 ×1000, the “Aerobic CFU's after 24 hours” value [3, 8] was 6,267 ×1000 and the “Anaerobic CFU's after 24 hour” value [3, 8] was 1,127 ×1000. For the same molecule, the “Fungal CFU's after 24 hours” value [3, 8] was 517 ×1000, the “Aerobic CFU's after 24 hours” value [3, 9] was 17,333 ×1000 and the “Anaerobic CFU's after 24 hour” value [3, 9] was 4,400 ×1000. For the same molecule, the “Fungal CFU's after 24 hours” value [3, 9] was 20,333 ×1000, the “Aerobic CFU's after 24 hours” value [3, 10] was 5,867 ×1000 and the “Anaerobic CFU's after 24 hour” value [3, 10] was 2,933 ×1000. For the same molecule, the “Fungal CFU's after 24 hours” value [3, 10] was 1,567 ×1000, the “Total (released from biofilm) colony forming units/ml, In culture supernatant” value ([3]; after 0.9 mg pure PTSO/liter culture) was 42,000 units/ml (×1000) and the “Total colony forming units/ml, In biofilm” value ([3]; after 0.9 mg pure PTSO/liter culture, 0* means biofilm had disappeared) was 0* units/ml (×1000). The “% volume biofilm in relation to culture volume” value ([3]; after 0.9 mg pure PTSO/liter culture, before start treatment 18) was 0%, the “total dosage at which the biofilm became significantly thinner” value ([3]; mature biofilm in PBR, visual observation) was 0.65 ul/l and the “total dosage at which disintegration / release of the biofilm becomes visible” value ([3]; mature biofilm in glass tube PBR, visual observation) was 0.05 ul/l. For the same molecule, the “MBEC (biofilm eradication)” value (Streptococcus uberis [4]) was 512 µg/mL, the “MBEC (biofilm eradication)” value ([5]; St. aureus 074) was 256 µg/mL and the “MBEC (biofilm eradication)” value ([5]; St. aureus ATCC 15564) was 256 µg/mL. For the same molecule, the “MBEC (biofilm eradication)” value ([5]; St. aureus ATCC 25923) was 512 µg/mL.
`CCCSSCCC` [DPD, dipropyl disulfide] was tested, and the “MBIC 90” value (Streptococcus uberis [1]) was over 1024 µg/mL, the “MBIC 90” value ([2]; St. aureus 074) was over 1024 µg/mL and the “MBIC 90” value ([2]; St. aureus ATCC 15564) was over 1024 µg/mL. The “MBIC 90” value ([2]; St. aureus ATCC 25923) was over 1024 µg/mL, the “state of the biofilm at the highest dosages (visual)” value ([3]; PBR, highest dosage(s) added) was “did not remove the remainder of the thin biofilm” and the “Total (released from biofilm) colony forming units/ml, In culture supernatant” value [3, 11] was 3,403 units/ml (×1000). For the same molecule, the “Total colony forming units/ml, In biofilm” value [3, 11] was 0 units/ml (×1000), the “% volume biofilm in relation to culture volume” value ([3]; after 208 mg pure DPD/liter culture, before start treatment 7) was 0% and the “total addition at which the biofilm started to release from the glass” value ([3]; after dose 8, visual observation) was 160 mg pure DPD/liter. For the same molecule, the “Aerobic CFU's after 24 hours” value [3, 12] was 400000 ×1000, the “Anaerobic CFU's after 24 hour” value [3, 12] was 45333 ×1000 and the “Fungal CFU's after 24 hours” value [3, 12] was 33333 ×1000. The “Aerobic CFU's after 24 hours” value [3, 13] was 440000 ×1000, the “Anaerobic CFU's after 24 hour” value [3, 13] was 43333 ×1000 and the “Fungal CFU's after 24 hours” value [3, 13] was 29000 ×1000. For the same molecule, the “Aerobic CFU's after 24 hours” value [3, 14] was 390000 ×1000, the “Anaerobic CFU's after 24 hour” value [3, 14] was 43333 ×1000 and the “Fungal CFU's after 24 hours” value [3, 14] was 35000 ×1000. For the same molecule, the “Aerobic CFU's after 24 hours” value [3, 15] was 403333 ×1000, the “Anaerobic CFU's after 24 hour” value [3, 15] was 39333 ×1000 and the “Fungal CFU's after 24 hours” value [3, 15] was 25333 ×1000. For the same molecule, the “Aerobic CFU's after 24 hours” value [3, 16] was 376667 ×1000, the “Anaerobic CFU's after 24 hour” value [3, 16] was 40333 ×1000 and the “Fungal CFU's after 24 hours” value [3, 16] was 24000 ×1000. For the same molecule, the “Aerobic CFU's after 24 hours” value [3, 17] was 426667 ×1000, the “Anaerobic CFU's after 24 hour” value [3, 17] was 37667 ×1000 and the “Fungal CFU's after 24 hours” value [3, 17] was 22333 ×1000. The “Aerobic CFU's after 24 hours” value [3, 18] was 563333 ×1000, the “Anaerobic CFU's after 24 hour” value [3, 18] was 43000 ×1000 and the “Fungal CFU's after 24 hours” value [3, 18] was 18333 ×1000. The “Aerobic CFU's after 24 hours” value [3, 19] was 1766667 ×1000, the “Anaerobic CFU's after 24 hour” value [3, 19] was 267000 ×1000 and the “Fungal CFU's after 24 hours” value [3, 19] was 18667 ×1000. The “Aerobic CFU's after 24 hours” value [3, 20] was 1413333 ×1000, the “Anaerobic CFU's after 24 hour” value [3, 20] was 340000 ×1000 and the “Fungal CFU's after 24 hours” value [3, 20] was 17000 ×1000. The “Aerobic CFU's after 24 hours” value [3, 21] was 936667 ×1000, the “Anaerobic CFU's after 24 hour” value [3, 21] was 100000 ×1000 and the “Fungal CFU's after 24 hours” value [3, 21] was 223333 ×1000. The “Aerobic CFU's after 24 hours” value [3, 22] was 163333 ×1000, the “Anaerobic CFU's after 24 hour” value [3, 22] was 35667 ×1000 and the “Fungal CFU's after 24 hours” value [3, 22] was 273333 ×1000. The “Aerobic CFU's after 24 hours” value [3, 23] was 107333 ×1000, the “Anaerobic CFU's after 24 hour” value [3, 23] was 19333 ×1000 and the “Fungal CFU's after 24 hours” value [3, 23] was 24333 ×1000. For the same molecule, the “Aerobic CFU's after 24 hours” value [3, 24] was 103333 ×1000, the “Anaerobic CFU's after 24 hour” value [3, 24] was 9333 ×1000 and the “Fungal CFU's after 24 hours” value [3, 24] was 12667 ×1000. For the same molecule, the “Aerobic CFU's after 24 hours” value [3, 25] was 98333 ×1000, the “Anaerobic CFU's after 24 hour” value [3, 25] was 5467 ×1000 and the “Fungal CFU's after 24 hours” value [3, 25] was 8000 ×1000. The “total dosage up to which biofilm release continued” value ([3]; visual observation) was 317 ul pure DPD/liter, the “MBEC (biofilm eradication)” value (Streptococcus uberis [4]) was over 1024 µg/mL and the “MBEC (biofilm eradication)” value ([5]; St. aureus 074) was 1024 µg/mL. The “MBEC (biofilm eradication)” value ([5]; St. aureus ATCC 15564) was over 1024 µg/mL and the “MBEC (biofilm eradication)” value ([5]; St. aureus ATCC 25923) was over 1024 µg/mL.
